Assay results from publication PMC5644278 (Alzheimer's & Dementia : Translational Research & Clinical …, 2016).

What was measured:
[1] = Pharmacokinetics of Gln-1062 in female Wistar rats; format: in vivo
Wistar rats = test: 28-day intranasal toxicity study; format: in vivo
[2] = Plasma pharmacokinetics after single intranasal dose of Gln-1062; format: in vivo, human; settings: over the Gln-1062 intranasal dose levels
healthy male subjects = test: Treatment emergent adverse events, single dose study; format: in vivo, human; settings: for Any event (treatment emerging adverse events) / Headache / Nasal discomfort / Rhinorrhea / Sneezing / Cold sweat or hyperhidrosis / Nausea / Vomiting / Diarrhea: number of subjects, percentage in parentheses
[3] = Gln-1062 5.5 mg, healthy young males
[4] = Gln-1062 5.5 mg, healthy young subjects
[5] = Gln-1062 11 mg, healthy young males
[6] = Gln-1062 11 mg, healthy young subjects
[7] = Gln-1062 22 mg, healthy elderly males
[8] = Gln-1062 22 mg, healthy elderly subjects
[9] = Gln-1062 33 mg, healthy elderly males
[10] = Gln-1062 33 mg, healthy elderly subjects
[11] = Gln-1062 44 mg, healthy elderly males

With `COc1ccc2c3c1O[C@H]1C[C@@H](OC(=O)c4ccccc4)C=C[C@@]31CCN(C)C2` [Gln-1062] the “Brain-to-blood ratio (AUClast brain / AUClast blood)” value ([1]; 5.0 mg/kg Gln-1062 IN) was 8.1, the “Brain-to-blood ratio (AUClast brain / AUClast blood)” value ([1]; 5.0 mg/kg Gln-1062 IV) was 18.40 and the “Brain-to-blood ratio (AUClast brain / AUClast blood)” value ([1]; 20.0 mg/kg Gln-1062 IN) was 10.2. For the same molecule, the AUClast ([1]; blood, 5.0 mg/kg Gln-1062 IV) was 528 ng·h/mL, the Cmax ([1]; blood, 5.0 mg/kg Gln-1062 IV) was 650 ng/mL and the AUClast ([1]; brain, 5.0 mg/kg Gln-1062 IV) was 9717 ng·h/g. For the same molecule, the human equivalent dose (Wistar rats; estimated from the rat NOAEL) was 48 mg, the NOAEL (Wistar rats; intranasal, 28-day, Wistar rats) was 5 mg/kg and the Tmax [2] was 15 to 45 min. For the same molecule, the half-life [2] was 66 to 168 min, the “Any event (treatment emerging adverse events)” value (from here on “Any event”) (healthy male subjects; [3]) was 6 (100) and the Headache (healthy male subjects; [3]) was 2 (33.3). The Nasal discomfort (healthy male subjects; [3]) was 6 (100), the Rhinorrhea (healthy male subjects; [3]) was 2 (33.3) and the Sneezing (healthy male subjects; [3]) was 1 (16.7). For the same molecule, the “Diarrhea, incidence” value (healthy male subjects; [4]) was “did not occur”, the “Vomiting, incidence” value (healthy male subjects; [4]) was “did not occur” and the “Cold sweat or hyperhidrosis, incidence” value (healthy male subjects; Gln-1062 11 mg) was 16.7%. For the same molecule, the “Nausea, incidence” value (healthy male subjects; [5]) was 16.7%, the “Any event” value (healthy male subjects; [5]) was 6 (100) and the “Cold sweat or hyperhidrosis” value (healthy male subjects; [5]) was 1 (16.7). For the same molecule, the Headache (healthy male subjects; [5]) was 2 (33.3), the Nasal discomfort (healthy male subjects; [5]) was 6 (100) and the Nausea (healthy male subjects; [5]) was 1 (16.7). For the same molecule, the Rhinorrhea (healthy male subjects; [5]) was 4 (66.7), the Sneezing (healthy male subjects; [5]) was 1 (16.7) and the Vomiting (healthy male subjects; [5]) was 1 (16.7). The “Diarrhea, incidence” value (healthy male subjects; [6]) was “did not occur”, the “Vomiting, incidence” value (healthy male subjects; [6]) was 16.7% and the “Nausea, incidence” value (healthy male subjects; [7]) was 16.7%. For the same molecule, the “Any event” value (healthy male subjects; [7]) was 5 (83.3), the Diarrhea (healthy male subjects; [7]) was 1 (16.7) and the Headache (healthy male subjects; [7]) was 3 (50). The Nasal discomfort (healthy male subjects; [7]) was 4 (66.7), the Nausea (healthy male subjects; [7]) was 1 (16.7) and the Rhinorrhea (healthy male subjects; [7]) was 2 (33.3). The Sneezing (healthy male subjects; [7]) was 1 (16.7), the “Diarrhea, incidence” value (healthy male subjects; [8]) was 16.7% and the “Vomiting, incidence” value (healthy male subjects; [8]) was “did not occur at all”. For the same molecule, the “Any event” value (healthy male subjects; [9]) was 5 (83.3), the Diarrhea (healthy male subjects; [9]) was 1 (16.7) and the Headache (healthy male subjects; [9]) was 2 (33.3). For the same molecule, the Nasal discomfort (healthy male subjects; [9]) was 4 (66.7), the Nausea (healthy male subjects; [9]) was 3 (50) and the Rhinorrhea (healthy male subjects; [9]) was 1 (16.7). The Sneezing (healthy male subjects; [9]) was 1 (16.7), the Vomiting (healthy male subjects; [9]) was 2 (33.3) and the “Diarrhea, incidence” value (healthy male subjects; [10]) was 16.7%. For the same molecule, the “Vomiting, incidence” value (healthy male subjects; [10]) was 33.3%, the “Cold sweat or hyperhidrosis, incidence” value (healthy male subjects; Gln-1062 44 mg) was 50% and the “Any event” value (healthy male subjects; [11]) was 5 (83.3). For the same molecule, the “Cold sweat or hyperhidrosis” value (healthy male subjects; [11]) was 3 (50), the Diarrhea (healthy male subjects; [11]) was 1 (16.7) and the Nasal discomfort (healthy male subjects; [11]) was 3 (50). For the same molecule, the Nausea (healthy male subjects; [11]) was 3 (50), the Rhinorrhea (healthy male subjects; [11]) was 3 (50) and the Sneezing (healthy male subjects; [11]) was 3 (50). For the same molecule, the Vomiting (healthy male subjects; [11]) was 2 (33.3) and the “Diarrhea, incidence” value (healthy male subjects; Gln-1062 44 mg, healthy elderly subjects) was 16.7%.
